Measurements reported in the supplement of paper PMC10307832.

What was measured:
Experiment in all cases: relative viability (nuclei count vs DMSO), 5 days (fraction); higher = more cells survive
Seliciclib + Palbociclib = compound: CC[C@H](CO)Nc1nc(NCc2ccccc2)c2ncn(C(C)C)c2n1 [Seliciclib] + CC(=O)c1c(C)c2cnc(Nc3ccc(N4CCNCC4)cn3)nc2n(C2CCCC2)c1=O [Palbociclib] (partner 0.5 µM)
Method in brief: (§1)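 Lung cancer cell lines were pin-tool dosed in 1536-well plates on the day after seeding, with either a lone drug or a fixed anchor-drug dose plus five library-drug doses (not always all listed) in √10 steps. Nuclei were counted on 4× images after 5 days. Relative viability is the ratio of treated-well to vehicle-well nuclei counts, with each value a median of duplicate plates.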

Seliciclib + Dasatinib = compound: CC[C@H](CO)Nc1nc(NCc2ccccc2)c2ncn(C(C)C)c2n1 [Seliciclib] + Cc1nc(Nc2ncc(C(=O)Nc3c(C)cccc3Cl)s2)cc(N2CCN(CCO)CC2)n1 [Dasatinib] (partner 0.075 µM)
Method in brief: as §1

Seliciclib + Pemetrexed = compound: CC[C@H](CO)Nc1nc(NCc2ccccc2)c2ncn(C(C)C)c2n1 [Seliciclib] + Nc1nc2[nH]cc(CCc3ccc(C(=O)N[C@@H](CCC(=O)O)C(=O)O)cc3)c2c(=O)[nH]1 [Pemetrexed] (partner 0.2 µM)
Method in brief: as §1

Seliciclib + Vorinostat = compound: CC[C@H](CO)Nc1nc(NCc2ccccc2)c2ncn(C(C)C)c2n1 [Seliciclib] + O=C(CCCCCCC(=O)Nc1ccccc1)NO [Vorinostat] (partner 1 µM)
Method in brief: as §1

Cell Line | relative viability (Seliciclib + Palbociclib; first compound 0.08 µM) | relative viability (Seliciclib + Palbociclib; first compound 0.253 µM) | relative viability (Seliciclib + Palbociclib; first compound 0.8 µM) | relative viability (Seliciclib + Palbociclib; first compound 2.53 µM) | relative viability (Seliciclib + Palbociclib; first compound 8 µM) | relative viability (Seliciclib + Dasatinib; first compound 0.08 µM) | relative viability (Seliciclib + Dasatinib; first compound 0.253 µM) | relative viability (Seliciclib + Dasatinib; first compound 0.8 µM) | relative viability (Seliciclib + Dasatinib; first compound 2.53 µM) | relative viability (Seliciclib + Dasatinib; first compound 8 µM) | relative viability (Seliciclib + Pemetrexed; first compound 0.08 µM) | relative viability (Seliciclib + Pemetrexed; first compound 0.253 µM) | relative viability (Seliciclib + Pemetrexed; first compound 0.8 µM) | relative viability (Seliciclib + Pemetrexed; first compound 2.53 µM) | relative viability (Seliciclib + Pemetrexed; first compound 8 µM) | relative viability (Seliciclib + Vorinostat; first compound 0.08 µM) | relative viability (Seliciclib + Vorinostat; first compound 0.253 µM) | relative viability (Seliciclib + Vorinostat; first compound 0.8 µM) | relative viability (Seliciclib + Vorinostat; first compound 2.53 µM) | relative viability (Seliciclib + Vorinostat; first compound 8 µM)
RERF-LC-KJ | 1 | 0.925 | 1.03 | 1.07 | 0.908 | 0.908 | 0.841 | 0.902 | 0.627 | 0.617 | 0.474 | 0.54 | 0.488 | 0.471 | 0.441 | 0.698 | 0.641 | 0.661 | 0.55 | 0.439
SK-LU-1 | 0.408 | 0.389 | 0.403 | 0.346 | 0.313 | 0.173 | 0.184 | 0.183 | 0.142 | 0.141 | 0.992 | 1.08 | 1.04 | 0.952 | 0.597 | 0.701 | 0.879 | 0.877 | 0.753 | 0.477
SK-MES-1 | 0.329 | 0.336 | 0.314 | 0.259 | 0.277 | 0.395 | 0.504 | 0.386 | 0.231 | 0.344 | 1 | 1.17 | 0.932 | 0.862 | 0.708 | 1.03 | 1.13 | 1.11 | 1.02 | 1.01
SW 900 | 0.583 | 0.489 | 0.513 | 0.411 | 0.306 | 0.541 | 0.593 | 0.661 | 0.397 | 0.559 | 0.515 | 0.501 | 0.484 | 0.451 | 0.406 | 0.53 | 0.701 | 0.484 | 0.467 | 0.35
SW 1573 | 0.332 | 0.315 | 0.368 | 0.361 | 0.292 | 0.608 | 0.525 | 0.524 | 0.35 | 0.301 | 0.875 | 0.723 | 0.886 | 0.791 | 0.731 | 0.943 | 0.687 | 0.708 | 0.632 | 0.346
UMC-11 | 0.317 | 0.27 | 0.325 | 0.312 | 0.303 | 0.517 | 0.52 | 0.491 | 0.507 | 0.458 | 0.741 | 0.753 | 0.789 | 0.78 | 0.594 | 0.432 | 0.336 | 0.353 | 0.281 | 0.194
